# According to patent US8637509B2, “Azaindazoles” (GlaxoSmithKline LLC, priority 2010, dated 2014):
# Biological target: T1, EZH2 (Homo sapiens, UniProt Q15910)
# T1 construct: GRITS37108
# Assay: EZH2 methyltransferase SPA assay (3H-SAM, Hela nucleosomes)
# Assay type: biochemical
# Settings: read-out: IC50
# Method: • 1. […] Prepare 500 μM SAH quench solution in ddH20 with 5-10 drops of concentrated HCl to dissolve. • 5. Prepare 6 mg/ml RNA binding SPA beads (Perkin Elmer) suspended in 0.2 M Citric Acid, pH 2.2
# Part C. […] Dispense 5 μL no enzyme control (assay buffer mix) to column 18 of plates. • 2. Dispense 5 μL of enzyme mix to the remaining wells in the plate. Centrifuge plate to mix and incubate at room temperature for 30 minutes. • 3. Dispense 5 μL of substrate mix to all wells to initiate the reactions. Centrifuge plate to mix and incubate at room temperature for 2 hours. • 4. […] Dispense 10 μL of 6 mg/ml RNA binding SPA beads prepared in 0.2 M citric acid, pH 2.2 using the Evolution instrument. Continuously shake the beads while adding to plates to prevent beads from settling. • 6. Seal the plates with Perkin Elmer top seals and allow the beads to equilibrate in the plate for at least 30 minutes at room temperature. • 7. […] Read plates in Microbeta after at least 5 hours incubation. Plates can be read immediately, but signal increases over time.
# Reagent addition can be done manually or with automated liquid handler.
# *The final DMSO concentration in this assay is 1%.
# *The positive control is in column 6; negative control is in column 18.
# T1 sequence (Q15910 whole entry): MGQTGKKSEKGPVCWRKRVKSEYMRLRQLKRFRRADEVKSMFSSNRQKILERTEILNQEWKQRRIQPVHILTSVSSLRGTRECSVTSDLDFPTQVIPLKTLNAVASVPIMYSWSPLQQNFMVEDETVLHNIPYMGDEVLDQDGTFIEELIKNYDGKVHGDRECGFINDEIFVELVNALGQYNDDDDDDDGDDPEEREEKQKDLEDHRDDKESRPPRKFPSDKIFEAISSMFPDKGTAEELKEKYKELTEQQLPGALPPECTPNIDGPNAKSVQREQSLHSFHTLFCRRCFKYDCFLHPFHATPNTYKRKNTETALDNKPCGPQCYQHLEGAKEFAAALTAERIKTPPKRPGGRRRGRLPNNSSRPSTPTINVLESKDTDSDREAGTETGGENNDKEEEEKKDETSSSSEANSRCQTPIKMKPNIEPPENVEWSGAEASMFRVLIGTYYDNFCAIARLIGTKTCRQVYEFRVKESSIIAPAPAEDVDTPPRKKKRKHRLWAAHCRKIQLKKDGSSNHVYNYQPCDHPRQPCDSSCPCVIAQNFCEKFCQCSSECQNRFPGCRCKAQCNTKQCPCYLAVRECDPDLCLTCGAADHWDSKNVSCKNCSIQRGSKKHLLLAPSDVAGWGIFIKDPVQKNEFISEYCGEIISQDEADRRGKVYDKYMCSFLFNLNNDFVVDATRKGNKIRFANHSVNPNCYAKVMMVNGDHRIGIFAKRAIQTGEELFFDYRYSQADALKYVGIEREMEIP
# T1 sequence (O75530 whole entry partner): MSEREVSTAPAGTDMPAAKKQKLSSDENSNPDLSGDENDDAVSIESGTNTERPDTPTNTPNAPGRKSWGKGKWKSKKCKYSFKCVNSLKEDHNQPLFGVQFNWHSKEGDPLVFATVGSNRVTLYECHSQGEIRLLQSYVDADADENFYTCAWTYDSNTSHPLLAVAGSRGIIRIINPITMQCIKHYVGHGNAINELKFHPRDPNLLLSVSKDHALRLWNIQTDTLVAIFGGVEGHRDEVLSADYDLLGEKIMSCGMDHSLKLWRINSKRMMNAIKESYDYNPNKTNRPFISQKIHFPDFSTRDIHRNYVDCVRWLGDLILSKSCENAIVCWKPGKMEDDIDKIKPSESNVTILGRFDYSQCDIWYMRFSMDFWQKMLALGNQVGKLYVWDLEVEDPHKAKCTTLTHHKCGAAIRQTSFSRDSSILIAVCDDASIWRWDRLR
# T1 sequence (Q15022 whole entry partner): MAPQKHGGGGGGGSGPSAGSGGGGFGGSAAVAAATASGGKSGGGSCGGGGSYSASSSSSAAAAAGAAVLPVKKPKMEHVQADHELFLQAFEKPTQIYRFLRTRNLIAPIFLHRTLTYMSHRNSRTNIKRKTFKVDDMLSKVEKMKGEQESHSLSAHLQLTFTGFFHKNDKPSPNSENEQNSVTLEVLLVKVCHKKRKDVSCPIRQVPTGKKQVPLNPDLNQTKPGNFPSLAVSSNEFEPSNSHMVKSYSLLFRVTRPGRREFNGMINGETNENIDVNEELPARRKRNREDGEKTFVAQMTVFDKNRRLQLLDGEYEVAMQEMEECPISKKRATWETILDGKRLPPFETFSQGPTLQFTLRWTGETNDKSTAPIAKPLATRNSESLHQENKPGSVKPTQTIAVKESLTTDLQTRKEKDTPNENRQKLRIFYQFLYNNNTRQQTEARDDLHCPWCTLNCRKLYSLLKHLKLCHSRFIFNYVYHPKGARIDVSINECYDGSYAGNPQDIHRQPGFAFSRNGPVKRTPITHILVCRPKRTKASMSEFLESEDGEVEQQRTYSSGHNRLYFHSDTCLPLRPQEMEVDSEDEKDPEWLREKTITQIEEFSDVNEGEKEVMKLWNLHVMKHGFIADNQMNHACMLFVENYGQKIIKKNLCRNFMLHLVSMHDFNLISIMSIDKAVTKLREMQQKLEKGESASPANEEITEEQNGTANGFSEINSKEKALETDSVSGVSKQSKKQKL
row,IC50,SMILES
1,56 nM,"CNS(=O)(=O)c1ccc(-c2cc(C(=O)NCc3c(C)cc(C)[nH]c3=O)c3cnn(C(C)C)c3n2)cc1 [Ex 42, N-[(4,6-Dimethyl-2-oxo-1,2-dihydro-3-pyridinyl)methyl]-6-{4-[(methylamino)sulfonyl]phenyl}-1-(1-methylethyl)-1H-pyrazolo[3,4-b]pyridine-4-carboxamide]"
2,475 nM,"Cc1cc(C)c(CNC(=O)c2cc(Cl)nc3c2cnn3C(C)C)c(=O)[nH]1 [Ex 1, 6-Chloro-N-[(4,6-dimethyl-2-oxo-1,2-dihydro-3-pyridinyl)methyl]-1-(1-methylethyl)-1H-pyrazolo[3,4-b]pyridine-4-carboxamide]"
3,402 nM,"Cc1cc(C)c(CNC(=O)c2cc(-c3cn[nH]c3)nc3c2cnn3C(C)C)c(=O)[nH]1 [Ex 71, N-[(4,6-Dimethyl-2-oxo-1,2-dihydro-3-pyridinyl)methyl]-1-(1-methylethyl)-6-(1H-pyrazol-4-yl)-1H-pyrazolo[3,4-b]pyridine-4-carboxamide]"
4,806 nM,"Cc1cc(C)c(CNC(=O)c2cc(Cl)nc3c2c(C)nn3C(C)C)c(=O)[nH]1 [Ex 2, 6-Chloro-N-[(4,6-dimethyl-2-oxo-1,2-dihydro-3-pyridinyl)methyl]-3-methyl-1-(1-methylethyl)-1H-pyrazolo[3,4-b]pyridine-4-carboxamide]"
5,673 nM,"Cc1cc(C)c(CNC(=O)c2cc(N3CCOCC3)nc3c2cnn3C(C)C)c(=O)[nH]1 [Ex 26, N-[(4,6-Dimethyl-2-oxo-1,2-dihydro-3-pyridinyl)methyl]-1-(1-methylethyl)-6-(4-morpholinyl)-1H-pyrazolo[3,4-b]pyridine-4-carboxamide]"
6,198 nM,"Cc1cc(C)c(CNC(=O)c2cc(-c3c[nH]c(=O)[nH]c3=O)nc3c2cnn3C(C)C)c(=O)[nH]1 [Ex 48, N-[(4,6-Dimethyl-2-oxo-1,2-dihydro-3-pyridinyl)methyl]-6-(2,4-dioxo-1,2,3,4-tetrahydro-5-pyrimidinyl)-1-(1-methylethyl)-1H-pyrazolo[3,4-b]pyridine-4-carboxamide]"
7,198 nM,"Cc1cc(C)c(CNC(=O)c2cc(-c3ccc(N)nc3)nc3c2cnn3C(C)C)c(=O)[nH]1 [Ex 60, 6-(6-Amino-3-pyridinyl)-N-[(4,6-dimethyl-2-oxo-1,2-dihydro-3-pyridinyl)methyl]-1-(1-methylethyl)-1H-pyrazolo[3,4-b]pyridine-4-carboxamide]"
8,24 nM,"Cc1cc(C)c(CNC(=O)c2cc(-c3ccc(N4CCN(C)CC4)nc3)nc3c2c(C)nn3C(C)C)c(=O)[nH]1 [Ex 27, N-[(4,6-Dimethyl-2-oxo-1,2-dihydro-3-pyridinyl)methyl]-3-methyl-1-(1-methylethyl)-6-[6-(4-methyl-1-piperazinyl)-3-pyridinyl]-1H-pyrazolo[3,4-b]pyridine-4-carboxamide]"
9,140 nM,"Cc1cc(C)c(CNC(=O)c2cc(-c3ccc4c(c3)CC(=O)N4)nc3c2cnn3C(C)C)c(=O)[nH]1 [Ex 79, N-[(4,6-Dimethyl-2-oxo-1,2-dihydro-3-pyridinyl)methyl]-1-(1-methylethyl)-6-(2-oxo-2,3-dihydro-1H-indol-5-yl)-1H-pyrazolo[3,4-b]pyridine-4-carboxamide]"
10,131 nM,"Cc1cc(C)c(CNC(=O)c2cc(-c3ccc4cn[nH]c4c3)nc3c2cnn3C(C)C)c(=O)[nH]1 [Ex 75, N-[(4,6-Dimethyl-2-oxo-1,2-dihydro-3-pyridinyl)methyl]-6-(1H-indazol-6-yl)-1-(1-methylethyl)-1H-pyrazolo[3,4-b]pyridine-4-carboxamide]"
11,270 nM,"Cc1cc(C)c(CNC(=O)c2cc(-c3ccc(-c4cn[nH]c4)cc3)nc3c2cnn3C(C)C)c(=O)[nH]1 [Ex 120, N-[(4,6-Dimethyl-2-oxo-1,2-dihydro-3-pyridinyl)methyl]-1-(1-methylethyl)-6-[4-(1H-pyrazol-4-yl)phenyl]-1H-pyrazolo[3,4-b]pyridine-4-carboxamide]"
